# Reference: patent US20230407243A1, “GENETIC PLATFORM TO INVESTIGATE THE FUNCTIONS OF BACTERIAL DRUG EFFLUX PUMPS” (priority 2022, published 2023)
# Like-named read-outs stand apart in the source and are kept apart here.
# How the values were obtained:
# Type in all cases: cell-based, Escherichia coli
# E. coli EKO-35 = experiment: microbe, parasite or virus in culture; conditions: for Fold change of MICs: EKO-35 compared to EKO-35 (reference); for MIC: Escherichia coli, EKO35
# Procedure, shortened: (§1)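 MIC derived from pre-incubation-corrected OD600 after 18 h growth at 37° C. (900 rpm) in MHB II. Inoculum was cells from 18 h LB culture adjusted to OD600 ~1.0 in PBS, then diluted 1/2000; compounds two-fold serially titrated in duplicate, DMSO as solvent control.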
# E. coli ΔtolC = experiment: microbe, parasite or virus in culture; conditions: for Minimum inhibitory concentration (MIC), ΔtolC: Table 10, without pore
# Procedure, shortened: as §1
# [1] = system: wild-type E. coli K-12 str. BW25113; experiment: microbe, parasite or virus in culture; conditions: technical duplicate; for MIC: Escherichia coli, BW25113
# Procedure, shortened: as §1
# EKO-35 araC::mdtBC = experiment: MIC susceptibility profiling, efflux platform; conditions: for Fold change of MICs: EKO-35 araC::mdtBC compared to EKO-35
# Procedure, shortened: as §1
# EKO-35 araC::mdtEF = experiment: MIC susceptibility profiling, efflux platform; conditions: for Fold change of MICs: EKO-35 araC::mdtEF compared to EKO-35
# Procedure, shortened: as §1
# wild-type (WT) K-12-Pore = experiment: microbe, parasite or virus in culture; conditions: technical duplicate
# Procedure, shortened: (§2)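 Strains carry the fhuA ΔC/Δ4L pore integrated between glmS and pstS under a constitutive promoter, with pore activity checked by vancomycin susceptibility. Overnight LB cultures were adjusted in PBS pH 7.4 to OD600 ~1.0 and diluted 1/2000 into MHB II. 2-fold compound titrations were read by OD600 after 18 h at 37 °C.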
# ΔtolC-Pore = experiment: microbe, parasite or virus in culture; conditions: for Minimum inhibitory concentration (MIC), Pore ΔtolC: Table 10, with pore
# Procedure, shortened: as §2
# EKO-35-Pore = experiment: MIC susceptibility profiling, porinated strain; conditions: for Fold changes of MICs: EKO-35-Pore compared to EKO-35-Pore (reference); for MIC: Escherichia coli
# Procedure, shortened: as §2
# EKO-35 araC::acrB Pore = experiment: MIC susceptibility profiling, porinated efflux platform; conditions: for Fold changes of MICs: EKO-35 araC::acr-B Pore compared to EKO-35-Pore
# Procedure, shortened: as §2
# [2] = system: EKO-35 araC::acrBD408A Pore; experiment: as above; conditions: for Fold changes of MICs: EKO-35 araC::acrBD408A Pore compared to EKO-35-Pore
# Procedure, shortened: as §2
# EKO-35 araC::acrD Pore = experiment: as above; conditions: for Fold changes of MICs: EKO-35 araC::acrD Pore compared to EKO-35-Pore
# Procedure, shortened: as §2
# EKO-35 araC::acrEF Pore = experiment: as above; conditions: for Fold changes of MICs: EKO-35 araC::acrEF Pore compared to EKO-35-Pore
# Procedure, shortened: as §2
# EKO-35 araC::emrAB Pore = experiment: as above; conditions: for Fold changes of MICs: EKO-35 araC::emrAB Pore compared to EKO-35-Pore
# Procedure, shortened: as §2
# EKO-35 araC::emrKY Pore = experiment: as above; conditions: for Fold changes of MICs: EKO-35 araC::emrKY Pore compared to EKO-35-Pore
# Procedure, shortened: as §2
# EKO-35 araC::macAB Pore = experiment: as above; conditions: for Fold changes of MICs: EKO-35 araC::macAB Pore compared to EKO-35-Pore
# Procedure, shortened: as §2
# EKO-35 araC::mdtBC Pore = experiment: as above; conditions: for Fold changes of MICs: EKO-35 araC::mdtBC Pore compared to EKO-35-Pore
# Procedure, shortened: as §2
# EKO-35 araC::mdtEF Pore = experiment: as above; conditions: for Fold changes of MICs: EKO-35 araC::mdtEF Pore compared to EKO-35-Pore
# Procedure, shortened: as §2
# EKO-35 araC::mexCD Pore = experiment: as above; conditions: for Fold changes of MICs: EKO-35 araC::mexCD Pore compared to EKO-35-Pore
# Procedure, shortened: as §2
# [3] = Table 13A, non-porinated, technical duplicate
# [4] = Table 14A, porinated, technical duplicate
compound,measurement,setting,value
C[n+]1c2cc(N)ccc2cc2ccc(N)cc21.[Cl-] [acriflavine],susceptibility of EKO-35 compared with the ΔtolC mutant,E. coli EKO-35,more susceptible
same,Fold change of MICs,E. coli EKO-35,1 fold
same,"Minimum inhibitory concentration (MIC), EKO-35","E. coli EKO-35; Table 10, without pore, technical duplicate",0.098 µg/mL
same,"Minimum Inhibitory Concentration, EKO-35",E. coli EKO-35; [3],0.098 µg/mL
same,"Minimum inhibitory concentration (MIC), ΔtolC",E. coli ΔtolC; technical duplicate,3.125 µg/mL
same,"Minimum Inhibitory Concentration, ΔtolC",E. coli ΔtolC; [3],3.125 µg/mL
same,"Minimum inhibitory concentration (MIC), K-12","[1]; Table 10, without pore",50 µg/mL
same,"Minimum Inhibitory Concentration, K-12","[1]; Table 13A, non-porinated",50 µg/mL
same,Fold change of MICs,EKO-35 araC::mdtBC,1 fold
same,"Minimum Inhibitory Concentration, EKO-35 araC::mdtBC","EKO-35 araC::mdtBC; Table 13B, non-porinated, technical duplicate",0.098 µg/mL
same,Fold change of MICs,EKO-35 araC::mdtEF,2 fold
same,"Minimum Inhibitory Concentration, EKO-35 araC::mdtEF",EKO-35 araC::mdtEF; [3],0.195 µg/mL
same,"Minimum inhibitory concentration (MIC), Pore K-12","wild-type (WT) K-12-Pore; Table 10, with pore",50 µg/mL
same,"Minimum inhibitory concentration, K-12 (WT)-Pore","wild-type (WT) K-12-Pore; Table 14A, porinated",50 µg/mL
same,"Minimum inhibitory concentration (MIC), Pore ΔtolC",ΔtolC-Pore; technical duplicate,3.125 µg/mL
same,"Minimum inhibitory concentration, ΔtolC-Pore",ΔtolC-Pore; [4],3.125 µg/mL
same,Fold changes of MICs,EKO-35-Pore,1 fold
same,"Minimum inhibitory concentration (MIC), Pore EKO-35","EKO-35-Pore; Table 10, with pore, technical duplicate",0.098 µg/mL
same,"Minimum inhibitory concentration, EKO-35-Pore",EKO-35-Pore; [4],0.098 µg/mL
same,Fold changes of MICs,EKO-35 araC::acrB Pore,16 fold
same,"Minimum inhibitory concentration, EKO-35 araC::acrB Pore",EKO-35 araC::acrB Pore; [4],1.563 µg/mL
same,Fold changes of MICs,[2],1 fold
same,Minimum inhibitory concentration,"[2]; EKO-35 araC::acrBD408A Pore, technical duplicate",0.098 µg/mL
same,Fold changes of MICs,EKO-35 araC::acrD Pore,2 fold
same,"Minimum inhibitory concentration, EKO-35 araC::acrD Pore",EKO-35 araC::acrD Pore; [4],0.195 µg/mL
same,Fold changes of MICs,EKO-35 araC::acrEF Pore,8 fold
same,"Minimum inhibitory concentration, EKO-35 araC::acrEF Pore",EKO-35 araC::acrEF Pore; [4],0.781 µg/mL
same,Fold changes of MICs,EKO-35 araC::emrAB Pore,2 fold
same,Minimum inhibitory concentration,"EKO-35 araC::emrAB Pore; EKO-35 araC::emrAB Pore, technical duplicate",0.195 µg/mL
same,Fold changes of MICs,EKO-35 araC::emrKY Pore,1 fold
same,Minimum inhibitory concentration,"EKO-35 araC::emrKY Pore; EKO-35 araC::emrKY Pore, technical duplicate",0.098 µg/mL
same,Fold changes of MICs,EKO-35 araC::macAB Pore,2 fold
same,Minimum inhibitory concentration,"EKO-35 araC::macAB Pore; EKO-35 araC::macAB Pore, technical duplicate",0.195 µg/mL
same,Fold changes of MICs,EKO-35 araC::mdtBC Pore,1 fold
same,Minimum inhibitory concentration,"EKO-35 araC::mdtBC Pore; EKO-35 araC::mdtBC Pore, technical duplicate",0.098 µg/mL
same,Fold changes of MICs,EKO-35 araC::mdtEF Pore,2 fold
same,"Minimum inhibitory concentration, EKO-35 araC::mdtEF Pore",EKO-35 araC::mdtEF Pore; [4],0.195 µg/mL
same,Fold changes of MICs,EKO-35 araC::mexCD Pore,4 fold
same,Minimum inhibitory concentration,"EKO-35 araC::mexCD Pore; EKO-35 araC::mexCD Pore, technical duplicate",0.391 µg/mL
CC1(C)S[C@@H]2[C@H](NC(=O)[C@H](N)c3ccccc3)C(=O)N2[C@H]1C(=O)O [ampicillin],Fold change of MICs,E. coli EKO-35,1 fold
same,MIC,"E. coli EKO-35; Table 10, without pore, technical duplicate, read-out: Minimum inhibitory concentration (MIC), EKO-35",25 µg/mL
same,MIC,"E. coli EKO-35; Table 13A, non-porinated, technical duplicate, read-out: Minimum Inhibitory Concentration, EKO-35",25 µg/mL
same,MIC,"E. coli ΔtolC; Escherichia coli, 18 h, read-out: Minimum Inhibitory Concentration, ΔtolC",25 µg/mL
same,"Minimum inhibitory concentration (MIC), ΔtolC",E. coli ΔtolC; technical duplicate,25 µg/mL
same,MIC,"[1]; Table 10, without pore, read-out: Minimum inhibitory concentration (MIC), K-12",100 µg/mL
same,MIC,"[1]; Table 13A, non-porinated, read-out: Minimum Inhibitory Concentration, K-12",100 µg/mL
same,Fold change of MICs,EKO-35 araC::mdtBC,1 fold
same,MIC,"EKO-35 araC::mdtBC; Escherichia coli, Table 13B, non-porinated, technical duplicate, read-out: Minimum Inhibitory Concentration, EKO-35 araC::mdtBC",25 µg/mL
same,Fold change of MICs,EKO-35 araC::mdtEF,1 fold
same,MIC,"EKO-35 araC::mdtEF; Escherichia coli, Table 13A, non-porinated, technical duplicate, read-out: Minimum Inhibitory Concentration, EKO-35 araC::mdtEF",25 µg/mL
same,MIC,"wild-type (WT) K-12-Pore; Escherichia coli, Table 10, with pore, read-out: Minimum inhibitory concentration (MIC), Pore K-12",12.5 µg/mL
same,MIC,"ΔtolC-Pore; Escherichia coli, 18 h, read-out: Minimum inhibitory concentration, ΔtolC-Pore",1.56 µg/mL
same,"Minimum inhibitory concentration (MIC), Pore ΔtolC",ΔtolC-Pore; technical duplicate,1.563 µg/mL
same,Fold changes of MICs,EKO-35-Pore,1 fold
same,MIC,"EKO-35-Pore; Table 10, with pore, technical duplicate, read-out: Minimum inhibitory concentration (MIC), Pore EKO-35",1.56 µg/mL
same,MIC,"EKO-35-Pore; Table 14A, porinated, technical duplicate, read-out: Minimum inhibitory concentration, EKO-35-Pore",1.56 µg/mL
same,Fold changes of MICs,EKO-35 araC::acrB Pore,8 fold
same,Fold changes of MICs,[2],1 fold
same,MIC,"[2]; Escherichia coli, EKO-35 araC::acrBD408A Pore, technical duplicate, read-out: Minimum inhibitory concentration",0.781 µg/mL
same,Fold changes of MICs,EKO-35 araC::acrD Pore,16 fold
same,MIC,"EKO-35 araC::acrD Pore; Escherichia coli, Table 14A, porinated, technical duplicate, read-out: Minimum inhibitory concentration, EKO-35 araC::acrD Pore",25 µg/mL
same,Fold changes of MICs,EKO-35 araC::acrEF Pore,2 fold
same,MIC,"EKO-35 araC::acrEF Pore; Escherichia coli, Table 14A, porinated, technical duplicate, read-out: Minimum inhibitory concentration, EKO-35 araC::acrEF Pore",3.12 µg/mL
same,Fold changes of MICs,EKO-35 araC::emrAB Pore,1 fold
same,MIC,"EKO-35 araC::emrAB Pore; Escherichia coli, EKO-35 araC::emrAB Pore, technical duplicate, read-out: Minimum inhibitory concentration",0.781 µg/mL
same,Fold changes of MICs,EKO-35 araC::emrKY Pore,2 fold
same,MIC,"EKO-35 araC::emrKY Pore; Escherichia coli, EKO-35 araC::emrKY Pore, technical duplicate, read-out: Minimum inhibitory concentration",3.12 µg/mL
same,Fold changes of MICs,EKO-35 araC::macAB Pore,1 fold
same,MIC,"EKO-35 araC::macAB Pore; Escherichia coli, EKO-35 araC::macAB Pore, technical duplicate, read-out: Minimum inhibitory concentration",1.56 µg/mL
same,Fold changes of MICs,EKO-35 araC::mdtBC Pore,1 fold
same,MIC,"EKO-35 araC::mdtBC Pore; Escherichia coli, EKO-35 araC::mdtBC Pore, technical duplicate, read-out: Minimum inhibitory concentration",0.781 µg/mL
same,Fold changes of MICs,EKO-35 araC::mdtEF Pore,1 fold
same,MIC,"EKO-35 araC::mdtEF Pore; Escherichia coli, Table 14A, porinated, technical duplicate, read-out: Minimum inhibitory concentration, EKO-35 araC::mdtEF Pore",1.56 µg/mL
same,Fold changes of MICs,EKO-35 araC::mexCD Pore,1 fold
same,MIC,"EKO-35 araC::mexCD Pore; Escherichia coli, EKO-35 araC::mexCD Pore, technical duplicate, read-out: Minimum inhibitory concentration",1.56 µg/mL
